Test results taken from DBAASP.
Converted amounts (≈) assume the structure as drawn. Values belong to the compound of their own block, whether it stands above or below them.

Tests used:
Experiment in all cases: ≥ marks a high value that may be exact or a test limit, other limits are often not marked, values filed in µg/mL are converted to µM
[1] = system: Escherichia coli ATCC 25922
[2] = system: Staphylococcus aureus LAC
[3] = system: Escherichia coli BL21(DE3)
Escherichia coli ML-35p = system: Escherichia coli ML-35p
[4] = system: Bacillus subtilis VKM B-886
[5] = system: Micrococcus luteus VKM B-1314
[6] = system: Bacillus megaterium VKM41
[7] = system: Staphylococcus aureus ATCC 29213
[8] = system: Pseudomonas aeruginosa PAO1
Acinetobacter baumannii = system: Acinetobacter baumannii
[9] = system: Staphylococcus aureus 209P
Escherichia coli C600 = system: Escherichia coli C600
[10] = system: Bacillus licheniformis VK21
[11] = system: Escherichia coli CCARM 1238
[12] = system: Candida albicans KCTC 7270
[13] = system: Pseudomonas aeruginosa 4891
[14] = system: Staphylococcus aureus CCARM 3090
[15] = system: Pseudomonas aeruginosa 4007
[16] = system: Trichosporon beigelii KCTC 7707
[17] = system: Escherichia coli CCARM 1229
[18] = system: Staphylococcus aureus CCARM 3518
[19] = system: Escherichia coli ATCC 35218
[20] = system: Serratia marcescens ATCC 13880
[21] = system: Klebsiella pneumoniae ATCC 700603
[22] = system: Staphylococcus aureus ATCC 80958
[23] = system: Klebsiella oxytoca ATCC 13182
Aspergillus niger = system: Aspergillus niger
Penicillium expansum = system: Penicillium expansum
[24] = system: Staphylococcus aureus KCCM 40510
[25] = system: Escherichia coli KCTC 1682
[26] = system: Staphylococcus epidermidis KCTC 1917
[27] = system: Enterococcus faecalis ATCC 51575
[28] = system: Pseudomonas aeruginosa KCTC 1637
[29] = system: Staphylococcus aureus KCTC 1621
[30] = system: Bacillus subtilis KCTC 3068
[31] = system: Salmonella typhimurium KCTC 1926
[32] = system: Enterococcus faecium KCCM 12118
[33] = system: Enterococcus faecium ATCC 51559
[34] = system: Enterococcus faecalis KCCM 29212
[35] = system: Cronobacter sakazakii ATCC 29544
[36] = system: Escherichia coli ATCC 43827
[37] = system: Candida tropicalis ATCC 750
[38] = system: Candida albicans ATCC 14053
[39] = system: Pseudomonas aeruginosa ATCC 27853
Candida krusei ATCC 6258 = system: Candida krusei ATCC 6258
Pseudomonas aeruginosa = system: Pseudomonas aeruginosa
[40] = system: Candida parapsilosis ATCC 22019
[41] = system: Bacillus subtilis ATCC 23857
Staphylococcus aureus MR = system: Staphylococcus aureus MR
[42] = system: Candida glabrata ATCC 2001
[43] = system: Staphylococcus epidermidis ATCC 12228
Escherichia coli ESBL = system: Escherichia coli ESBL

- MIC [1]: > 104 µM
- MIC [2]: ≥ 104 µM
Compound: NC(N)=NCCC[C@H](NC(=O)[C@H](CCCN=C(N)N)NC(=O)[C@H](CCCN=C(N)N)NC(=O)[C@H](CCCN=C(N)N)NC(=O)[C@H](Cc1ccccc1)NC(=O)[C@H](Cc1ccccc1)NC(=O)[C@H](Cc1ccccc1)NC(=O)[C@@H](N)Cc1ccccc1)C(=O)O [FFFFRRRR]

- MIC [3]: ≥ 64 µM
- MIC (Escherichia coli ML-35p): ≥ 64 µM
- MIC [4]: 16 µM (≈ 28.7 µg/mL)
- MIC [5]: 16 µM (≈ 28.7 µg/mL)
- MIC [6]: 16 µM (≈ 28.7 µg/mL)
- MIC [7]: > 16 µM
- MIC [8]: > 64 µM
- MIC (Acinetobacter baumannii): ≥ 64 µM
- MIC [9]: 16 µM (≈ 28.7 µg/mL)
- MIC (Escherichia coli C600): ≥ 64 µM
- MIC [10]: 16 µM (≈ 28.7 µg/mL)
Compound: CC[C@H](C)[C@H](NC(=O)[C@H](C)NC(=O)[C@@H](NC(=O)CNC(=O)[C@@H](NC(=O)[C@H](CC(N)=O)NC(=O)[C@H](CCCCN)NC(=O)[C@H](C)NC(=O)CNC(=O)[C@H](CC(=O)O)NC(=O)[C@H](Cc1c[nH]c2ccccc12)NC(=O)[C@@H](NC(=O)[C@H](CO)NC(=O)[C@H](CO)NC(=O)[C@H](Cc1c[nH]c2ccccc12)NC(=O)[C@H](Cc1ccccc1)NC(=O)CN)C(C)C)C(C)C)[C@@H](C)O)C(=O)O [GFWSSVWDGAKNVGTAI]

- MIC [11]: 2 µM (≈ 5.51 µg/mL)
- MIC [12]: ≥ 32 µM
- MIC [13]: 4 µM (≈ 11 µg/mL)
- MIC [14]: 4 µM (≈ 11 µg/mL)
- MIC [15]: 2 µM (≈ 5.51 µg/mL)
- MIC [16]: ≥ 32 µM
- MIC [17]: 2 µM (≈ 5.51 µg/mL)
- MIC [18]: 4 µM (≈ 11 µg/mL)
Compound: CC[C@H](C)[C@H](NC(=O)[C@H](C)NC(=O)[C@H](CCC(=O)O)NC(=O)[C@H](Cc1cnc[nH]1)NC(=O)[C@@H](NC(=O)[C@H](CCCCN)NC(=O)[C@H](CCC(N)=O)NC(=O)[C@H](Cc1ccccc1)NC(=O)[C@@H](NC(=O)[C@H](CCCCN)NC(=O)[C@H](CCCCN)NC(=O)[C@H](CC(C)C)NC(=O)[C@H](C)NC(=O)[C@H](CC(N)=O)NC(=O)[C@H](CC(C)C)NC(=O)CN)C(C)C)[C@@H](C)CC)C(=O)N[C@@H](CCCCN)C(=O)N[C@@H](CC(C)C)C(=O)N[C@H](C(=O)N[C@@H](CC(N)=O)C(=O)N[C@@H](CC(N)=O)C(=O)N[C@@H](Cc1cnc[nH]1)C(=O)N[C@H](C(=O)N[C@@H](CCC(N)=O)C(N)=O)C(C)C)[C@@H](C)CC [GLNALKKVFQKIHEAIKLINNHVQ]

- MIC [19]: 30 µM (≈ 59.6 µg/mL)
- MIC [20]: 30 µM (≈ 59.6 µg/mL)
- MIC [21]: > 30 µM
- MIC [22]: 30 µM (≈ 59.6 µg/mL)
- MIC [23]: 30 µM (≈ 59.6 µg/mL)
Compound: CC[C@H](C)[C@H](NC(=O)[C@H](Cc1ccc(O)cc1)NC(=O)[C@H](Cc1ccc(O)cc1)NC(=O)[C@H](CO)NC(=O)CNC(=O)CNC(=O)[C@H](CC(N)=O)NC(=O)[C@H](CCCN=C(N)N)NC(=O)[C@H](CC(C)C)NC(=O)[C@H](Cc1ccccc1)NC(=O)[C@H](CC(N)=O)NC(=O)CN)C(=O)N[C@H](C(=O)N1CCC[C@H]1C(=O)N[C@@H](C)C(=O)N[C@@H](Cc1ccccc1)C(=O)N[C@@H](CCCN=C(N)N)C(=O)NCC(=O)O)C(C)C [GNFLRNGGSYYIVPAFRG]

- MIC (Aspergillus niger): 26.6 µM (≈ 50 µg/mL)
- MIC (Penicillium expansum): 13.3 µM (≈ 25 µg/mL)
Compound: CC(C)C[C@H](NC(=O)[C@H](Cc1ccccc1)NC(=O)[C@H](CCCN=C(N)N)NC(=O)[C@@H]1CCCN1C(=O)[C@H](C)NC(=O)[C@H](Cc1c[nH]c2ccccc12)NC(=O)[C@H](Cc1c[nH]c2ccccc12)NC(=O)[C@H](C)NC(=O)[C@H](CCCN=C(N)N)NC(=O)[C@H](Cc1ccccc1)NC(=O)[C@H](Cc1ccccc1)NC(=O)[C@H](CCCCN)NC(=O)[C@@H](N)CCCCN)C(=O)N[C@@H](CCCCN)C(N)=O [KKFFRAWWAPRFLK]

- MIC [24]: 3.65 µM (≈ 4 µg/mL)
- MIC [25]: 3.65 µM (≈ 4 µg/mL)
- MIC [26]: 3.65 µM (≈ 4 µg/mL)
- MIC [27]: 3.65 µM (≈ 4 µg/mL)
- MIC [28]: 7.3 µM (≈ 7.99 µg/mL)
- MIC [29]: 3.65 µM (≈ 4 µg/mL)
- MIC [30]: 1.83 µM (≈ 2 µg/mL)
- MIC [31]: 3.65 µM (≈ 4 µg/mL)
- MIC [32]: 1.83 µM (≈ 2 µg/mL)
- MIC [33]: 0.913 µM (≈ 0.999 µg/mL)
- MIC [34]: 1.83 µM (≈ 2 µg/mL)
Compound: CC[C@H](C)[C@H](NC(=O)[C@H](CC(C)C)NC(=O)[C@H](CC(C)C)NC(=O)[C@@H](N)CC(C)C)C(=O)N[C@H](C(=O)N[C@@H](CC(C)C)C(=O)N[C@@H](CCCN=C(N)N)C(=O)N[C@@H](CCCCN)C(=O)N[C@@H](CCCCN)C(N)=O)C(C)C [LLLIVLRKK]

- MIC [35]: ≥ 64 µM
- MIC [36]: ≥ 32 µM
- MIC [37]: 15.7 µM (≈ 15 µg/mL)
- MIC [38]: ≥ 63.9 µM
- MIC [39]: 32 µM (≈ 30.5 µg/mL)
- MIC (Candida krusei ATCC 6258): 31.4 µM (≈ 30 µg/mL)
- MIC (Pseudomonas aeruginosa): 32 µM (≈ 30.5 µg/mL)
- MIC [40]: ≥ 63.9 µM
- MIC [41]: ≥ 32 µM
- MIC [7]: 128 µM (≈ 122 µg/mL)
- MIC (Staphylococcus aureus MR): ≥ 128 µM
- MIC [42]: 31.4 µM (≈ 30 µg/mL)
- MIC [43]: 64 µM (≈ 61 µg/mL)
- MIC (Escherichia coli ESBL): ≥ 32 µM
- MIC [21]: 64 µM (≈ 61 µg/mL)
- MIC [1]: 32 µM (≈ 30.5 µg/mL)
Compound: CC(C)C[C@H](NC(=O)[C@H](Cc1cnc[nH]1)NC(=O)[C@H](CC(C)C)NC(=O)[C@H](CO)NC(=O)[C@H](CC(C)C)NC(=O)[C@H](CCCCN)NC(=O)[C@H](Cc1ccccc1)NC(=O)[C@@H]1CCCN1)C(N)=O [PFKLSLHL]
